What all share (format): cell-based, human
The subject of assay [1] is Bcl-2. As to the kind of experiment: Expression of key genes with and without p53 inhibitor (Table 3): Bcl-2. The settings on record: positive = manifold increase, negative = decrease vs untreated cells. The procedure: (§1) Quantitative real-time PCR experiments were performed to estimate the expression of a selection of targeted genes. HUVEC cells (Lonza Walkersville, Frederick, Md.) were cultured on 0.1% gelatin-coated petri dishes by following standard protocols recommended by the vendor in a humidified incubator by maintaining 5% CO2 at 37° C. Human epithelial ovarian cancer cells (A2780) and cisplatin-resistant cells (A2780/C30) were cultured in RPMI 1640 with or without cisplatin (7 μM) and pyrodach-4 (180 μM) for 0, 3, 12 and 24 hours. […] HUVECs were treated with or without cisplatin (7 μM) or pyrodach-4 (90 or 180 μM) for various durations ranging from 1 hr. to 6 hrs.
(§2) Both treated and untreated cancer cells were maintained in RPMI 1640 medium with 10% fetal bovine serum, 2 μmol L-glutamine, 100 units/mL penicillin-streptomycin and 0.25 units/mL insulin solution, at 37° C. with 5% CO2. RNA was isolated from both the treated and untreated cells. […] The quantity and purity of RNA were determined by UV spectroscopy (NanoDrop 2000 Thermo Scientific, Wilmington, Del.). A minimum absorbance ratio index (ratio of the absorbance measured at 260 nm over that at 280 nm) of 1.9 was used as an acceptable purity. […] The target gene was labeled with a blue dye (FAM, absorbance: 494 nm, emission: 518 nm) while the reference gene was tagged with a green dye (VIC, absorbance: 538 nm, emission: 554 nm). […]

Assay [2] relates to VEGFR2 gene. Nature of the assay: Quantitative real-time PCR, VEGFR2 gene expression in A2780/C30 cells. Here is the method:
(§3) Evaluations of selected gene expressions in Human Umbilical Vein Endothelial Cells (HUVEC) and Human Ovarian Cancer Cells by quantitative reverse transcriptase polymerase chain reaction (PCR)
as §1
(§4) Both treated and untreated cancer cells were maintained in RPMI 1640 medium with 10% fetal bovine serum, 2 μmol L-glutamine, 100 units/mL penicillin-streptomycin and 0.25 units/mL insulin solution, at 37° C. with 5% CO2. RNA was isolated from both the treated and untreated cells. […] The quantity and purity of RNA were determined by UV spectroscopy (NanoDrop 2000 Thermo Scientific, Wilmington, Del.). A minimum absorbance ratio index (ratio of the absorbance measured at 260 nm over that at 280 nm) of 1.9 was used as an acceptable purity. […] The target gene was labeled with a blue dye (FAM, absorbance: 494 nm, emission: 518 nm) while the reference gene was tagged with a green dye (VIC, absorbance: 538 nm, emission: 554 nm). The cDNA concentrations were selected such that the threshold cycle (Ct) values for the target genes were between 17 and 32, most sensitive for the fluorescence detection by ABI StepOnePlus™ instrument used for the measurements.
(§5) The threshold cycle number (Ct), the point at which the fluorescence of the qPCR reaction just exceeds the threshold fluorescence of the detection system, was determined. […]

The subject of assay [3] is FasL. Nature of the assay: Expression of key genes with and without p53 inhibitor (Table 3): FasL. The settings on record: positive = manifold increase, negative = decrease vs untreated cells. Here is the method:
as §1, §2

Assay [4] relates to VEGFR-2. As to the kind of experiment: Expression of key genes with and without p53 inhibitor (Table 3): VEGFR-2. The settings on record: positive = manifold increase, negative = decrease vs untreated cells. Here is the method: as §1, §2
The test system of assay [5] is BAX. As to the kind of experiment: Expression of key genes with and without p53 inhibitor (Table 3): BAX. As to conditions: positive = manifold increase, negative = decrease vs untreated cells. Here is the method: as §1, §2
Assay [6] concerns FasL. Nature of the assay: Quantitative real-time PCR, FasL expression in HUVEC. As to conditions: HUVEC treated with pyrodach-4. The procedure:
as §3
(§6) Quantitative real-time PCR experiments were performed to estimate the expression of a selection of targeted genes. HUVEC cells (Lonza Walkersville, Frederick, Md.) were cultured on 0.1% gelatin-coated petri dishes by following standard protocols recommended by the vendor in a humidified incubator by maintaining 5% CO2 at 37° C. […]
as §2, with “CO2.” for “CO2. RNA was isolated from both the treated and untreated cells.”
as §5

The subject of assay [7] is p53. Nature of the assay: Expression of key genes with and without p53 inhibitor (Table 3): p53. As to conditions: positive = manifold increase, negative = decrease vs untreated cells. Here is the method:
as §1, §2

The subject of assay [8] is VEGFR2 gene. Nature of the assay: Quantitative real-time PCR, VEGFR2 gene expression in A2780 cells. Here is the method:
as §3, §1, §4, §5

Assay [9] concerns BAX. Nature of the assay: Quantitative real-time PCR, Bax expression in HUVEC. As to conditions: HUVEC treated with pyrodach-4. The procedure:
as §3, §6
as §2, with “CO2.” for “CO2. RNA was isolated from both the treated and untreated cells.”
as §5

The test system of assay [10] is PUMA. Nature of the assay: Quantitative real-time PCR, PUMA expression in HUVEC. As to conditions: HUVEC treated with pyrodach-4. The procedure: as §3, §6
as §2, with “CO2.” for “CO2. RNA was isolated from both the treated and untreated cells.”
as §5

For assay [11], the system named is PTEN. As to the kind of experiment: Quantitative real-time PCR, PTEN expression in A2780 cells. The settings on record: for Normalized expression of PTEN: control = 1.0. Here is the method: as §3, §1, §4, §5
A general note: In qPCR the cycle at which signal appears reflects the starting amount.

For assay [12], the system named is PTEN. Nature of the assay: Expression of key genes with and without p53 inhibitor (Table 3): PTEN. As to conditions: positive = manifold increase, negative = decrease vs untreated cells. Here is the method: as §1, §2
Assay [13] relates to Caspase 9. Nature of the assay: Expression of key genes with and without p53 inhibitor (Table 3): Caspase 9. The settings on record: positive = manifold increase, negative = decrease vs untreated cells. The procedure:
as §1, §2

These results are taken from patent publication US20130236568A1, “PHOSPHAPLATINS HAVING ANTI-ANGIOGENIC, ANTI-METASTATIC, AND PRO-APOPTOTIC PROPERTIES AND USES THEREOF” (Ohio University, priority 2011, published 2013).

Consider “trans-(±)-1,2-cyclohexanediamine-trans-dihydroxo(pyrophosphato) platinum(IV) [Pyrodach-4]”, for which the results for the “Expression of Bcl-2” value in [1] (Pyrodach-4 + PFT-α) and in assay [1] (Pyrodach-4 treatment only) were −2.0 and 1.0, respectively. Further, the “Normalized expression of VEGFR2 gene” value in [2] (A2780/C30 (cisplatin-resistant), positive = manifold increase, negative = relative decrease vs untreated cells, cisplatin 7 μM, pyrodach-4 180 μM) is reported as −2.0; in assay [8] (A2780 (cisplatin-sensitive), positive = manifold increase, negative = relative decrease vs untreated cells, cisplatin 7 μM, pyrodach-4 180 μM) it was −2.0. Also, the “Suppression of VEGFR-2 gene expression” value in assay [2] (cisplatin-resistant human ovarian cancer cells) and in assay [8] (cisplatin-sensitive human ovarian cancer cells) was not above 50% each time. For the same substance, the figures for the “Expression of FasL” value in [3] (Pyrodach-4 + PFT-α) and in [3] (Pyrodach-4 treatment only) were “undetectable” and 4.6, respectively. The “Expression of VEGFR-2” value is given as −1.6 in assay [4] (Pyrodach-4 + PFT-α) and −1.9 in assay [4] (Pyrodach-4 treatment only). The “Expression of BAX” value is on record as 1.0 in [5] (Pyrodach-4 + PFT-α (p53 inhibitor)) and 2.8 in [5] (Pyrodach-4 treatment only, cell line not given). In assay [6], the “Over-expression of FasL” value is given as 2-4 fold. In addition, the results for the “Expression of p53” value in [7] (Pyrodach-4 + PFT-α) and in assay [7] (Pyrodach-4 treatment only) were 2.1 and 1.8, respectively. The “Over-expression of Bax” value in assay [9] was 2-3 fold. The “Over-expression of PUMA” value in [10] is listed as 10-15 fold. Also, the “Expression of the PTEN gene compared to control” value in assay [11] is recorded as 5.5 fold. Moreover, the results for the “Normalized expression of PTEN” value in assay [11] (pyrodach-4 alone) and in [11] (pyrodach-4 in the presence of p53 inhibitor PTF-α) were 5.5 and 0.8, respectively. Also, the “Expression of PTEN” value in [12] (Pyrodach-4 + PFT-α) is recorded as −1.3; in [12] (Pyrodach-4 treatment only), 5.5. The “Expression of Caspase 9” value was 1.0 in assay [13] (Pyrodach-4 + PFT-α) and 2.0 in assay [13] (Pyrodach-4 treatment only).
